According to patent US20040019018A1, “Rigid pyrrolidone modulators of pkc” (priority 2003, published 2004):
Several values for one entry are separate records, joined by “and”; a condition that tells them apart may be missing. Identical values can stand only once.

Tests used:
Assay in all cases: [3H]PDBu displacement from recombinant PKC isozyme (baculovirus)
Type in all cases: binding
Conditions in all cases: [3H]PDBu competition
α-PKC = molecular target: T1, α-PKC (Homo sapiens, UniProt P17252)
T1 construct: made in house; host or cells: Sf9 cells (baculovirus)
Procedure: (§1) The ability of representative compounds of the invention to bind specific isozymes of PKC was determined using an assay (Example 13) in which displacement of [20-^3H]phorbol -12,13-dibutyrate ([^3H]PDBu) from either recombinant PKC isozymes prepared in a Baculovirus system, or unresolved mixture of isozymes of PKC isolated from whole brain extracts, was used. These procedures are described below. […] (See the key that follows)
(§2) Analysis of [20-^3H]phorbol 12,13-dibutyrate binding to PKC. Specific binding of [^3H]PDBu to PKC was carried out as described (Kazanietz, et al., Mol. Pharmacol. 44:298-307 (1993)). [^3H]PDBu (20.0 Ci/mmol) was obtained from New England Nuclear. Phosphatidylserine and bovine […] were obtained from Sigma Chemical Co. Binding was determined in an incubation volume of 250 μl, containing [^3H]PDBu, PKC, 0.05 M Tris-Cl, pH 7.4, 100 μg/ml phosphatidylserine, various concentrations of the ligand being assayed for competition of [^3H]PDBu binding, and bovine […] at 1 mg/ml. In the case of the classical PKCs (α, β, […]) CaCl2 was included at a concentration of 0.1 mM. Liposomes of phosphatidylserine were prepared as follows. The phosphatidylserine solutions were dried down from CHCl3 under a stream of N2. After addition of 0.05 M Tris-Cl, pH 7.4, liposomes were prepared by sonication for 30 sec with the microtip probe of Sonifier Cell Disrupter (Heat Systems-Ultrasonics). [^3H]PDBu was used at a concentration twice the Kd previously determined for the specific receptor. Ligands were assayed over a concentration range of 3 orders of magnitude. Ligands were diluted in 0.05 M Tris-Cl, pH 7.4 containing 1 mg/ml bovine g-globulin. If the compounds were not soluble at the highest concentration used, they were dissolved in organic solvent (CHCl3 or ethanol) and mixed with the phosphatidylserine dissolved in CHCl3. The solvent was removed under a stream of N2.
(§3) Mixed liposomes were then prepared, as described for the preparation of the liposomes of phosphatidylserine alone, by the addition of 0.05 M Tris-Cl, pH 7.4, and sonication for 30 sec with the microtip probe of a Sonifier Cell Disrupter (Heat Systems-Ultrasonics). Incubation was for 5 min at 37° C. The samples were then be cooled to 4° C. for 8 min and 200 μl of 35% polyethylene glycol in 0.05 M Tris-Cl, pH 7.4 (w:w) added. After vigorous mixing, the samples were incubated for 15 min to allow precipitation of the receptor. The precipitate was recovered by centrifugation at 12,000 rpm in a Beckman microcentrifuge at 4° C. A 100 μl aliquot of the supernatant was removed and its radioactivity determined in a Wallac liquid scintillation counter, Model 1409. This value provided a measure of the concentration of unbound [^3H]PDBu. The remainder of the supernatant was removed by aspiration and blotting with absorbent tissue. The tip of the centrifuge tube was cut off and the radioactivity in the pellet measured to determine total bound [^3H]PDBu. Non-specific binding of [^3H]PDBu was measured in the presence of 30 μM non-radioactive PDBu and used to determine an apparent partition coefficient for [^3H]PDBu under these assay conditions.
(§4) Specific binding represents the difference between total binding and the non-specific binding, where the latter value was calculated from the partition coefficient and the measured free [^3H]PDBu concentration in each tube. In each experiment, triplicate determinations were performed at each concentration of competing ligand.

γ-PKC = molecular target: T2, γ-PKC (Homo sapiens, UniProt P05129)
T2 construct: made in house; host or cells: Sf9 cells (baculovirus)
Procedure: as §1, §2, §3, §4

ε-PKC = molecular target: T3, ε-PKC (Homo sapiens, UniProt Q02156)
T3 sequence (Q02156 1-737): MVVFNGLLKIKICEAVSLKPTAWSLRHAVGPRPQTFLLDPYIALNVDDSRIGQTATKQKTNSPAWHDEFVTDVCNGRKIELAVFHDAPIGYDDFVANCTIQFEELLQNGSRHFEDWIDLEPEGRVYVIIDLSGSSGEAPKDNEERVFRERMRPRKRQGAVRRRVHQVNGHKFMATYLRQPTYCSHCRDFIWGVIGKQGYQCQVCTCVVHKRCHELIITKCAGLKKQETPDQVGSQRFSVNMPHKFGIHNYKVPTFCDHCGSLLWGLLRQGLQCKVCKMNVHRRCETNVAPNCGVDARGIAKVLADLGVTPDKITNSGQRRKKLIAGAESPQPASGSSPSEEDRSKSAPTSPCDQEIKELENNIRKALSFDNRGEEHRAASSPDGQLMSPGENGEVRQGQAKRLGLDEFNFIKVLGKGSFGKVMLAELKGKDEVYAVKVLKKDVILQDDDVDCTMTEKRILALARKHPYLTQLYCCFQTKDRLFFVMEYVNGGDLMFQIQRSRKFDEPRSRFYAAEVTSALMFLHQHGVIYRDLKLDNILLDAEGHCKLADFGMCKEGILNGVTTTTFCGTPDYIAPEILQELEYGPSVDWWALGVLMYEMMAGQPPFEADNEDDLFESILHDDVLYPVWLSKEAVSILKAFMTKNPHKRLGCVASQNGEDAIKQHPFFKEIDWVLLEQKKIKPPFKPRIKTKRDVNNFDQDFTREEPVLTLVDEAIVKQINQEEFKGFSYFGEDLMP
Procedure: as §1, §2, §3, §4

| SMILES | Ki (α-PKC) [nM] | Ki (γ-PKC) [nM] | Ki (ε-PKC) |
| --- | --- | --- | --- |
| CCCCCCCCC#Cc1ccc2c(c1)C(C)(C(C)C)C1C(=O)NC(CO)C21 [Compound 1, (3S, 8R, 9S, 10S)-6-(dec-1′-ynyl)-3-hydroxymethyl-8-isopropyl-8-methyl-3,3a,8,8a-tetrahydro-2H-2-aza-cyclopenta[a]inden-1-one] | 580 ± 214 | 279 ± 50 | 469 nM and 946 nM |
| CCCCCCCCCCCC(=O)Oc1cc2c(cc1C(C)=O)[C@@H]1[C@@H](CO)NC(=O)[C@@H]1[C@]2(C)C(C)C [Compound 4, (3S, 8S, 9S, 10S)-5-acetyl-6-dodecanoyloxyl-3-hydroxymethyl-8-isopropyl-8-methyl-3,3a,8,8a-tetrahydro-2H -2-aza-cyclopenta[a]inden-1-one] | 2250 ± 585 | 3650 ± 1090 | 5100 ± 3110 nM |
| CCCCCCCCCCCC(=O)Oc1cc2c(cc1Br)[C@@H]1[C@@H](CO)NC(=O)[C@@H]1[C@]2(C)C(C)C [Compound 5, (3S, 8S, 9S, 10S)-5-bromo-6-dodecanoyloxyl-3-hydroxymethyl-8-isopropyl-8-methyl-3,3a,8,8a-tetrahydro-2H -2-aza-cyclopenta[a]inden-1-one] | 2980 ± 1040 | 1230 ± 258 | 1300 ± 377 nM |
| CCCCCCCCCCCC(=O)Oc1ccc2c(c1)[C@@](C)(C(C)C)[C@H]1C(=O)N[C@H](CO)[C@@H]21 [Compound 3, (3S, 8S, 9S, 10S)-6-dodecanoyloxyl-3-hydroxymethyl-8-isopropyl-8-methyl-3,3a,8,8a-tetrahydro-2H -2-aza-cyclopenta[a]inden-1-one] | 674 ± 249 | 327 ± 65 | 228 ± 43 nM |
| CCCCCCCCCCCC(=O)Oc1cc2c(cc1C(C)=O)[C@@H]1[C@@H](CO)NC(=O)[C@@H]1[C@@]2(C)C(C)C [Compound 11, (3S, 8R, 9S, 10S)-5-acetyl-6-dodecanoyloxyl-3-hydroxymethyl-8-isopropyl-8-methyl-3,3a,8,8a-tetrahydro-2H -2-aza-cyclopenta[a]inden-1-one] | > 10000 | > 10000 | > 10000 nM |
| CCCCCCCCCCCC(=O)Oc1ccc2c(c1)[C@](C)(C(C)C)[C@H]1C(=O)N[C@H](CO)[C@@H]21 [Compound 2, (3S, 8R, 9S, 10S)-6-dodecanoyloxyl-3-hydroxymethyl-8-isopropyl-8-methyl-3,3a,8,8a-tetrahydro-2H -2-aza-cyclopenta[a]inden-1-one] | 395 ± 71 | 209 ± 38 | 515 ± 155 nM |
